As usually defined, the IC50 is the point on the concentration scale where inhibition reaches its midpoint.

human recombinant GPR65, sequence (Q8IYL9 whole entry): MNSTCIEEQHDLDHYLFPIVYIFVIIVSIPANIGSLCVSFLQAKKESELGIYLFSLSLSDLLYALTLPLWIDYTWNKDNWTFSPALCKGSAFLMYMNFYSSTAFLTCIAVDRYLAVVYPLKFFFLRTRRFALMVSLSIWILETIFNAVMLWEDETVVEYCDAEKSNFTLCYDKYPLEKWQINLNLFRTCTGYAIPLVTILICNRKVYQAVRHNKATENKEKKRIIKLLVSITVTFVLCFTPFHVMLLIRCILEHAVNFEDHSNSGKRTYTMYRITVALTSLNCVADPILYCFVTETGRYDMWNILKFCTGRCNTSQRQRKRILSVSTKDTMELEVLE

One test addresses human recombinant GPR65 (Homo sapiens, UniProt Q8IYL9). The test is described as follows: Human GPR65 cAMP HTRF antagonist assay.
Details: not given
Type of test: cell-based. The gist of the method:
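Antagonism measured as suppression of the cAMP rise when pH is dropped to 7.2 (control wells pH 7.9) in 1321N1 cells stably carrying human GPR65. Cells in KRH with 1 mM IBMX and 200 μM EDTA saw compound 30 min, then acid stimulation 30 min; HTRF cAMP detection, normalised, 4-parameter logistic IC50.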
Background: In TR-FRET formats the signal depends on donor and acceptor labels being close together.
As to `CO[C@H]1C[C@@H](Oc2ccc(NC(=O)N3[C@H]4CC[C@@H]3c3ccnc(F)c3C4)cc2Cl)C1` [Compound 72, (5R,8S)-N-(3-Chloro-4-((1s,3S)-3-methoxycyclobutoxy)phenyl)-1-fluoro-6,7,8,9-tetrahydro-5H-5,8-epiminocyclohepta[c]pyridine-10-carboxamide], the IC50 lay in the range of 500 to 5000 nM. On the same count and under the same terms, under `CO[C@H]1C[C@H](Oc2ccc(NC(=O)N3[C@H]4CC[C@@H]3c3ccnc(F)c3C4)cc2Cl)C1` [Compound 73, (5R,8S)-N-(3-Chloro-4-((1r,3R)-3-methoxycyclobutoxy)phenyl)-1-fluoro-6,7,8,9-tetrahydro-5H-5,8-epiminocyclohepta[c]pyridine-10-carboxamide] stands 500 to 5000 nM; under `O=C(Nc1cc(Cl)c(I)cc1F)N1[C@H]2CC[C@@H]1c1ccnc(F)c1C2` [Compound 77, (5R,8S)-N-(5-Chloro-2-fluoro-4-iodophenyl)-1-fluoro-6,7,8,9-tetrahydro-5H-5,8-epiminocyclohepta[c]pyridine-10-carboxamide], below 500 nM. Still for that read-out and setting: under `O=C(Nc1cc(Cl)c(I)cc1F)N1[C@H]2CC[C@@H]1c1c[nH]c(=O)cc1C2` [Compound 79, (6S,9R)-N-(5-Chloro-2-fluoro-4-iodophenyl)-3-oxo-3,5,6,7,8,9-hexahydro-2H-6,9-epiminocyclohepta[c]pyridine-10-carboxamide] stands below 500 nM. Consider `O=C(Nc1cc(I)c(Cl)cc1F)N1[C@H]2CC[C@@H]1c1c[nH]c(=O)cc1C2` [Compound 80, (6S,9R)-N-(4-Chloro-2-fluoro-5-iodophenyl)-3-oxo-3,5,6,7,8,9-hexahydro-2H-6,9-epiminocyclohepta[c]pyridine-10-carboxamide], for which the IC50 is 500 to 5000 nM. The same measure, in the same setting: then `O=C(Nc1cc(Cl)c(OC2CCC2)cc1F)N1[C@H]2CC[C@@H]1c1c[nH]c(=O)cc1C2` [Compound 81, (6S,9R)-N-(5-Chloro-4-cyclobutoxy-2-fluorophenyl)-3-oxo-3,5,6,7,8,9-hexahydro-2H-6,9-epiminocyclohepta[c]pyridine-10-carboxamide], with below 500 nM; and `O=C(Nc1cc(Cl)c(C2CC2)cc1F)N1[C@H]2CC[C@@H]1c1c[nH]c(=O)cc1C2` [Compound 82, (6S,9R)-N-(5-Chloro-4-cyclopropyl-2-fluorophenyl)-3-oxo-3,5,6,7,8,9-hexahydro-2H-6,9-epiminocyclohepta[c]pyridine-10-carboxamide], with below 500 nM; and `O=C(Nc1cc(Cl)c(C(F)(F)F)cc1F)N1[C@H]2CC[C@@H]1c1ccnnc1C2` [Compound 85, (5R,8S)-N-(5-Chloro-2-fluoro-4-(trifluoromethyl)phenyl)-6,7,8,9-tetrahydro-5H-5,8-epiminocyclohepta[c]pyridazine-10-carboxamide], with below 500 nM.

As to `N#Cc1nccc2c1C[C@@H]1CC[C@H]2N1C(=O)Nc1cc(Cl)c(Cl)cc1F` [Compound 92, (5R,8S)-1-Cyano-N-(4,5-dichloro-2-fluorophenyl)-6,7,8,9-tetrahydro-5H-5,8-epiminocyclohepta[c]pyridine-10-carboxamide], the IC50 is below 500 nM.

In the case of `COc1cnc(F)c2c1[C@H]1CC[C@@H](C2)N1C(=O)Nc1cc(Cl)c(Cl)cc1F` [Compound 96, (5R,8S)-N-(4,5-Dichloro-2-fluorophenyl)-1-fluoro-4-methoxy-6,7,8,9-tetrahydro-5H-5,8-epiminocyclohepta[c]pyridine-10-carboxamide], the IC50 was below 500 nM.

`COc1cnc(F)c2c1[C@H]1CC[C@@H](C2)N1C(=O)Nc1cc(Cl)c(C(F)(F)F)cc1F` [Compound 97, (5R,8S)-N-(5-Chloro-2-fluoro-4-(trifluoromethyl)phenyl)-1-fluoro-4-methoxy-6,7,8,9-tetrahydro-5H-5,8-epiminocyclohepta[c]pyridine-10-carboxamide]: the IC50 is below 500 nM. `O=C(Nc1cc(Cl)c(Cl)cc1F)N1[C@H]2CC[C@@H]1c1ncc(F)cc1C2` [Compound 98, (6S,9R)-N-(4,5-Dichloro-2-fluorophenyl)-3-fluoro-6,7,8,9-tetrahydro-5H-6,9-epiminocyclohepta[b]pyridine-10-carboxamide]: the IC50 was below 500 nM. As to `O=C(Nc1cc(Cl)c(Cl)cc1F)N1[C@H]2CC[C@@H]1c1c(Cl)cnc(F)c1C2` [Compound 100, (5R,8S)-4-Chloro-N-(4,5-dichloro-2-fluorophenyl)-1-fluoro-6,7,8,9-tetrahydro-5H-5,8-epiminocyclohepta[c]pyridine-10-carboxamide], the IC50 was below 500 nM. As to `O=C(Nc1cc(Cl)c(Cl)cc1F)N1[C@H]2CC[C@@H]1c1c(OCc3ccccc3)cnc(F)c1C2` [Compound 102, (5R,8S)-4-(benzyloxy)-N-(4,5-dichloro-2-fluorophenyl)-1-fluoro-6,7,8,9-tetrahydro-5H-5,8-epiminocyclohepta[c]pyridine-10-carboxamide], the IC50 was below 500 nM. The same measure, in the same setting: under `C[C@@]12CC[C@@H](Cc3c1ccnc3F)N2C(=O)Nc1cc(Cl)c(Cl)cc1F` [Compound 103, (5R,8S)-N-(4,5-Dichloro-2-fluorophenyl)-1-fluoro-5-methyl-6,7,8,9-tetrahydro-5H-5,8-epiminocyclohepta[c]pyridine-10-carboxamide] stands below 500 nM; under `O=C(Nc1cc(Cl)c(Cl)cc1F)N1[C@H]2CC[C@@H]1c1c(O)cnc(F)c1C2` [Compound 104, (5R,8S)—N-(4,5-Dichloro-2-fluorophenyl)-1-fluoro-4-hydroxy-6,7,8,9-tetrahydro-5H-5,8-epiminocyclohepta[c]pyridine-10-carboxamide], below 500 nM; under `COCCCOc1cnc(F)c2c1[C@H]1CC[C@@H](C2)N1C(=O)Nc1cc(Cl)c(Cl)cc1F` [Compound 105, (5R,8S)—N-(4,5-Dichloro-2-fluorophenyl)-1-fluoro-4-(3-methoxypropoxy)-6,7,8,9-tetrahydro-5H-5,8-epiminocyclohepta[c]pyridine-10-carboxamide], below 500 nM. Regarding `C=C1c2ccnc(F)c2[C@H]2CC[C@@H]1N2C(=O)Nc1cc(Cl)c(Cl)cc1F` [Compound 106, (6S,9R)-N-(4,5-Dichloro-2-fluorophenyl)-1-fluoro-5-methylene-6,7,8,9-tetrahydro-5H-6,9-epiminocyclohepta[c]pyridine-10-carboxamide], the IC50 lay in the range of 500 to 5000 nM. Still for that read-out and setting: under `O=C(Nc1cc(Cl)c(-c2ccc3nonc3c2)cc1F)N1[C@H]2CC[C@@H]1c1n[nH]c(=O)cc1C2` [Compound 108, (6S,9R)-N-(4-(Benzo[c][1,2,5]oxadiazol-5-yl)-5-chloro-2-fluorophenyl)-3-oxo-3,5,6,7,8,9-hexahydro-2H-6,9-epiminocyclohepta[c]pyridazine-10-carboxamide] stands below 500 nM.

Staying with this test, now noted: 1321N1-hrGPR65 cells, cAMP HTRF, assay pH 7.2; read-out: hGPR65 IC50 (Activity of selected compounds according to the invention).
As for `O=C(Nc1ccc(OC2COC2)c(Cl)c1)N1[C@H]2CC[C@@H]1c1ccnc(F)c1C2` [Compound 71, (5R,8S)-N-(3-Chloro-4-(oxetan-3-yloxy)phenyl)-1-fluoro-6,7,8,9-tetrahydro-5H-5,8-epiminocyclohepta[c]pyridine-10-carboxamide], the IC50 is 500 to 5000 nM. The same measure, in the same setting: under `O=C(Nc1cc(I)c(Cl)cc1F)N1[C@H]2CC[C@@H]1c1ccnc(F)c1C2` [Compound 78, (5R,8S)-N-(4-Chloro-2-fluoro-5-iodophenyl)-1-fluoro-6,7,8,9-tetrahydro-5H-5,8-epiminocyclohepta[c]pyridine-10-carboxamide] stands 500 to 5000 nM; under `COc1nccc2c1C[C@@H]1CC[C@H]2N1C(=O)Nc1cc(Cl)c(Cl)cc1F` [Compound 88, (5R,8S)-N-(4,5-Dichloro-2-fluorophenyl)-1-methoxy-6,7,8,9-tetrahydro-5H-5,8-epiminocyclohepta[c]pyridine-10-carboxamide], 500 to 5000 nM. On the same count and under the same terms, under `O=C(Nc1cc(Cl)c(Cl)cc1F)N1[C@H]2CC[C@@H]1c1ccnc(C(F)F)c1C2` [Compound 89, (5R,8S)-N-(4,5-Dichloro-2-fluorophenyl)-1-(difluoromethyl)-6,7,8,9-tetrahydro-5H-5,8-epiminocyclohepta[c]pyridine-10-carboxamide] stands 500 to 5000 nM. On the same count and under the same terms, under `O=C(Nc1cc(Cl)c(Cl)cc1F)N1[C@H]2CC[C@@H]1c1ncccc1C2` [Compound 90, (6S,9R)-N-(4,5-Dichloro-2-fluorophenyl)-6,7,8,9-tetrahydro-5H-6,9-epiminocyclohepta[b]pyridine-10-carboxamide] stands above 5000 nM; under `O=C(Nc1cc(Cl)c(Cl)cc1F)N1[C@H]2CC[C@@H]1c1nccc(F)c1C2` [Compound 91, (6S,9R)-N-(4,5-dichloro-2-fluorophenyl)-4-fluoro-6,7,8,9-tetrahydro-5H-6,9-epiminocyclohepta[b]pyridine-10-carboxamide], 500 to 5000 nM; under `O=C(Nc1cc(Cl)c(Cl)cc1F)N1[C@H]2CC[C@@H]1c1ccnc(OC(F)F)c1C2` [Compound 93, (5R,8S)-N-(4,5-dichloro-2-fluorophenyl)-1-(difluoromethoxy)-6,7,8,9-tetrahydro-5H-5,8-epiminocyclohepta[c]pyridine-10-carboxamide], 500 to 5000 nM. As for `O=C(Nc1cc(Cl)c(Cl)cc1F)N1[C@@H]2CC[C@H]1c1ncc(F)cc1C2` [Compound 95, (6R,9S)-N-(4,5-Dichloro-2-fluorophenyl)-3-fluoro-6,7,8,9-tetrahydro-5H-6,9-epiminocyclohepta[b]pyridine-10-carboxamide], the IC50 is above 5000 nM. On the same count and under the same terms, then `O=C(Nc1cc(Cl)c(Cl)cc1F)N1[C@H]2CC[C@@H]1c1c(F)ncc(Cl)c1C2` [Compound 99, (6S,9R)-4-Chloro-N-(4,5-dichloro-2-fluorophenyl)-1-fluoro-6,7,8,9-tetrahydro-5H-6,9-epiminocyclohepta[c]pyridine-10-carboxamide], with 500 to 5000 nM. In the case of `O=C(Nc1cc(Cl)c(Cl)cc1F)N1[C@H]2CC[C@@H]1c1c(C#CCO)cnc(F)c1C2` [Compound 107, (5R,8S)—N-(4,5-Dichloro-2-fluorophenyl)-1-fluoro-4-(3-hydroxyprop-1-yn-1-yl)-6,7,8,9-tetrahydro-5H-5,8-epiminocyclohepta[c]pyridine-10-carboxamide], the IC50 fell in the range of 500 to 5000 nM.

The values above are taken from patent US20240368173A1, “TRICYCLIC GPR65 MODULATORS” (PATHIOS THERAPEUTICS LIMITED, priority 2021, published 2024).
